Source: patent US6525001B1, “Substituted pyrimidine and pyridine herbicides” (Mid-American Commercialization Corporation, priority 1997, dated 2003)

What was measured:
Format in all cases: in vivo
Design in all cases: key: 0 is no effect; 10 is complete control
[1] = system: wild oat (Avena fatua); assay: Test B pre-/postemergence
Summary of the method: (§1)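 Scored visually 0 (none) to 10 (complete control) against untreated plants after twelve to sixteen greenhouse days. Test chemicals, formulated in surfactant-containing non-phytotoxic solvent, applied to soil after planting and, separately, onto 1- to 4-leaf (2–18 cm) plants.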

[2] = system: velvetleaf (Abutilon theophrasti); assay: Test B pre-/postemergence
Summary of the method: as §1

[3] = system: crabgrass (Digitaria sanguinalis); assay: Test B pre-/postemergence; conditions: for Crabgrass plant response rating: Preemergence
Summary of the method: as §1

[4] = system: broadleaf signalgrass (Brachiaria decumbens); assay: Test B pre-/postemergence; conditions: for B. signalgrass plant response rating: Preemergence
Summary of the method: as §1

[5] = system: corn (Zea mays); assay: Test B pre-/postemergence; conditions: for Corn plant response rating: Preemergence
Summary of the method: as §1

[6] = system: momingglory (Ipomoea hederacea); assay: Test B pre-/postemergence
Summary of the method: as §1

[7] = system: purple nutsedge (Cyperus rotundus); assay: Test B pre-/postemergence
Summary of the method: as §1

[8] = system: sugar beet (Beta vulgaris); assay: Test B pre-/postemergence
Summary of the method: as §1

[9] = system: pigweed (Amaranthus retroflexus); assay: Test B pre-/postemergence
Summary of the method: as §1

[10] = system: cocklebur (Xanthium strumarium); assay: Test B pre-/postemergence; conditions: for Cocklebur plant response rating: Preemergence
Summary of the method: as §1

[11] = system: bedstraw (Galium aparine); assay: Test B pre-/postemergence; conditions: for Bedstraw plant response rating: Preemergence
Summary of the method: as §1

[12] = system: wheat (Triticum aestivum); assay: Test B pre-/postemergence
Summary of the method: as §1

[13] = system: rape (Brassica napus); assay: Test B pre-/postemergence
Summary of the method: as §1

[14] = system: giant foxtail (Setaria faberii); assay: Test B pre-/postemergence
Summary of the method: as §1

[15] = system: soybean (Glycine max); assay: Test B pre-/postemergence
Summary of the method: as §1

[16] = system: blackgrass (Alopecurus myosuroides); assay: Test B pre-/postemergence; conditions: for Blackgrass plant response rating: Preemergence
Summary of the method: as §1

[17] = system: bamyardgrass (Echinochloa crus-galli); assay: Test B flood test
Summary of the method: (§2)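 Flood test on plants grown to the 2-leaf stage; treated plants kept in greenhouse twelve to sixteen days, then visually rated against controls on a 0 (no effect) to 10 (complete control) scale.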

[18] = system: rice (Oryza sativa); assay: Test B flood test
Summary of the method: as §2

[19] = system: smallflower flatsedge (Cyperus difformis); assay: Test B flood test
Summary of the method: as §2

[20] = system: duck salad (Heteranthera limosa); assay: Test B flood test
Summary of the method: as §2

[21] = Rate 250 g/ha, Postemergence (so in the source)
[22] = Rate 62 g/ha, Postemergence (flood test)
[23] = Rate 125 g/ha, Postemergence, flood test
[24] = Rate 250 g/ha, Postemergence (flood test species)
[25] = Rate 125 g/ha, Postemergence section (flood test species)

COc1cnc(-n2ccc(C(F)(F)F)n2)nc1Cc1cccc(C(F)(F)F)c1 [Compound 45]
0: Wild oats plant response rating ([1]; Rate 62 g/ha, Postemergence) | Wild oats plant response rating ([1]; Rate 62 g/ha, Preemergence) | Wild oats plant response rating ([1]; Rate 125 g/ha, Postemergence) | Plant response rating, Wild oats ([1]; Rate 125 g/ha, Preemergence) | Plant response rating, Wild oats ([1]; Rate 250 g/ha, Postemergence) | Plant response rating, Wild oats [1, 21] | Plant response rating, Velvetleaf ([2]; Rate 62 g/ha, Postemergence) | Velvetleaf plant response rating ([2]; Rate 62 g/ha, Preemergence) | Velvetleaf plant response rating ([2]; Rate 125 g/ha, Postemergence) | Plant response rating, Velvetleaf ([2]; Rate 125 g/ha, Preemergence) | Plant response rating, Velvetleaf ([2]; Rate 250 g/ha, Postemergence) | Plant response rating, Velvetleaf [2, 21] | Plant response rating, Crabgrass ([3]; Rate 62 g/ha, Postemergence) | Crabgrass plant response rating ([3]; Rate 62 g/ha) | Plant response rating, Crabgrass ([3]; Rate 125 g/ha, Postemergence) | Crabgrass plant response rating ([3]; Rate 125 g/ha) | Plant response rating, Crabgrass ([3]; Rate 250 g/ha, Postemergence) | Plant response rating, Crabgrass [3, 21] | Plant response rating, B. signalgrass ([4]; Rate 62 g/ha, Postemergence) | B. signalgrass plant response rating ([4]; Rate 62 g/ha) | Plant response rating, B. signalgrass ([4]; Rate 125 g/ha, Postemergence) | B. signalgrass plant response rating ([4]; Rate 125 g/ha) | Plant response rating, B. signalgrass ([4]; Rate 250 g/ha, Postemergence) | Plant response rating, B. signalgrass ([4]; Rate 250 g/ha, Postemergence as printed in head r139 (second section for compounds 26-50)) | Plant response rating, Corn ([5]; Rate 62 g/ha, Postemergence) | Corn plant response rating ([5]; Rate 62 g/ha) | Plant response rating, Corn ([5]; Rate 125 g/ha, Postemergence) | Corn plant response rating ([5]; Rate 125 g/ha) | Plant response rating, Corn ([5]; Rate 250 g/ha, Postemergence) | Plant response rating, Corn [5, 21] | Plant response rating, Morningglory ([6]; Rate 62 g/ha, Postemergence) | Morningglory plant response rating ([6]; Rate 62 g/ha, Preemergence) | Morningglory plant response rating ([6]; Rate 125 g/ha, Postemergence) | Morningglory plant response rating ([6]; Rate 125 g/ha, Preemergence) | Plant response rating, Morningglory ([6]; Rate 250 g/ha, Postemergence) | Plant response rating, Morningglory [6, 21] | Plant response rating, Nutsedge ([7]; Rate 62 g/ha, Postemergence) | Nutsedge plant response rating ([7]; Rate 62 g/ha, Preemergence) | Nutsedge plant response rating ([7]; Rate 125 g/ha, Postemergence) | Nutsedge plant response rating ([7]; Rate 125 g/ha, Preemergence) | Plant response rating, Nutsedge [7, 21] | Plant response rating, Sugarbeets ([8]; Rate 62 g/ha, Postemergence) | Sugarbeets plant response rating ([8]; Rate 62 g/ha, Preemergence) | Sugarbeets plant response rating ([8]; Rate 125 g/ha, Postemergence) | Plant response rating, Sugarbeets ([8]; Rate 125 g/ha, Preemergence) | Plant response rating, Sugarbeets ([8]; Rate 250 g/ha, Postemergence) | Plant response rating, Sugarbeets [8, 21] | Plant response rating, Redroot pigweed ([9]; Rate 62 g/ha, Postemergence) | Redroot pigweed plant response rating ([9]; Rate 62 g/ha, Preemergence) | Redroot pigweed plant response rating ([9]; Rate 125 g/ha, Postemergence) | Redroot pigweed plant response rating ([9]; Rate 125 g/ha, Preemergence) | Plant response rating, Redroot pigweed ([9]; Rate 250 g/ha, Postemergence) | Plant response rating, Redroot pigweed [9, 21] | Plant response rating, Cocklebur ([10]; Rate 62 g/ha, Postemergence) | Cocklebur plant response rating ([10]; Rate 62 g/ha) | Plant response rating, Cocklebur ([10]; Rate 125 g/ha, Postemergence) | Cocklebur plant response rating ([10]; Rate 125 g/ha) | Plant response rating, Cocklebur ([10]; Rate 250 g/ha, Postemergence) | Plant response rating, Cocklebur [10, 21] | Plant response rating, Bedstraw ([11]; Rate 62 g/ha, Postemergence) | Bedstraw plant response rating ([11]; Rate 62 g/ha) | Plant response rating, Bedstraw ([11]; Rate 125 g/ha, Postemergence) | Bedstraw plant response rating ([11]; Rate 125 g/ha) | Plant response rating, Bedstraw ([11]; Rate 250 g/ha, Postemergence) | Plant response rating, Bedstraw [11, 21] | Wheat plant response rating ([12]; Rate 62 g/ha, Postemergence) | Wheat plant response rating ([12]; Rate 62 g/ha, Preemergence) | Wheat plant response rating ([12]; Rate 125 g/ha, Postemergence) | Plant response rating, Wheat ([12]; Rate 125 g/ha, Preemergence) | Plant response rating, Wheat ([12]; Rate 250 g/ha, Postemergence) | Plant response rating, Wheat [12, 21] | Plant response rating, Rape ([13]; Rate 62 g/ha, Postemergence) | Rape plant response rating ([13]; Rate 62 g/ha, Preemergence) | Rape plant response rating ([13]; Rate 125 g/ha, Postemergence) | Rape plant response rating ([13]; Rate 125 g/ha, Preemergence) | Plant response rating, Rape ([13]; Rate 250 g/ha, Postemergence) | Plant response rating, Rape [13, 21] | Plant response rating, Giant foxtail ([14]; Rate 62 g/ha, Postemergence) | Giant foxtail plant response rating ([14]; Rate 62 g/ha, Preemergence) | Giant foxtail plant response rating ([14]; Rate 125 g/ha, Postemergence) | Giant foxtail plant response rating ([14]; Rate 125 g/ha, Preemergence) | Plant response rating, Giant foxtail ([14]; Rate 250 g/ha, Postemergence) | Plant response rating, Giant foxtail [14, 21] | Plant response rating, Soybean ([15]; Rate 62 g/ha, Postemergence) | Soybean plant response rating ([15]; Rate 62 g/ha, Preemergence) | Soybean plant response rating ([15]; Rate 125 g/ha, Postemergence) | Plant response rating, Soybean ([15]; Rate 125 g/ha, Preemergence) | Plant response rating, Soybean ([15]; Rate 250 g/ha, Postemergence) | Plant response rating, Soybean [15, 21] | Plant response rating, Blackgrass ([16]; Rate 62 g/ha, Postemergence) | Blackgrass plant response rating ([16]; Rate 62 g/ha) | Plant response rating, Blackgrass ([16]; Rate 125 g/ha, Postemergence) | Blackgrass plant response rating ([16]; Rate 125 g/ha) | Plant response rating, Blackgrass ([16]; Rate 250 g/ha, Postemergence) | Plant response rating, Blackgrass [16, 21] | Plant response rating, Barnyardgrass [17, 22] | Plant response rating, Barnyardgrass [17, 23] | Plant response rating, Barnyardgrass [17, 24] | Plant response rating, Rice [18, 22] | Rice plant response rating [18, 25] | Plant response rating, Rice [18, 24] | Plant response rating, S. Flatsedge [19, 22] | S. Flatsedge plant response rating [19, 25] | Plant response rating, S. Flatsedge [19, 24] | Plant response rating, Ducksalad [20, 22] | Plant response rating, Ducksalad [20, 23] | Plant response rating, Ducksalad [20, 24]
